Laboratory results from ChEMBL document CHEMBL2346545, “Quinic acid derivatives from Pimpinella brachycarpa exert anti-neuroinflammatory activity in lipopolysaccharide-induced microglia” (Bioorg Med Chem Lett, 2013).
Active and inactive are the calls of the source. The rule behind the calls is not given here.

Legend:
[1] = Cytotoxicity against mouse BV2 cells assessed as cell viability at 20 uM by MTT assay; format: cell-based, BV-2; conditions: read-out: Activity
BV-2 [2] = assay: Anti-neuroinflammatory activity in mouse BV2 cells assessed as inhibition of LPS-induced nitric oxide production […] by Griess assay relative to control; format: functional, cell-based
[3] = Reduction of SNP-induced nitrite accumulation at 5 to 10 uM after 180 mins by Griess assay
[4] = target: T1, Nitric oxide synthase, inducible (Mus musculus) (UniProt P29477); assay: Inhibition of iNOS in LPS-treated mouse BV2 cells assessed as decrease in nitrite level at 1 to 10 uM after 12 hrs by Griess assay; format: cell-based; conditions: BV-2
T1 sequence (whole entry): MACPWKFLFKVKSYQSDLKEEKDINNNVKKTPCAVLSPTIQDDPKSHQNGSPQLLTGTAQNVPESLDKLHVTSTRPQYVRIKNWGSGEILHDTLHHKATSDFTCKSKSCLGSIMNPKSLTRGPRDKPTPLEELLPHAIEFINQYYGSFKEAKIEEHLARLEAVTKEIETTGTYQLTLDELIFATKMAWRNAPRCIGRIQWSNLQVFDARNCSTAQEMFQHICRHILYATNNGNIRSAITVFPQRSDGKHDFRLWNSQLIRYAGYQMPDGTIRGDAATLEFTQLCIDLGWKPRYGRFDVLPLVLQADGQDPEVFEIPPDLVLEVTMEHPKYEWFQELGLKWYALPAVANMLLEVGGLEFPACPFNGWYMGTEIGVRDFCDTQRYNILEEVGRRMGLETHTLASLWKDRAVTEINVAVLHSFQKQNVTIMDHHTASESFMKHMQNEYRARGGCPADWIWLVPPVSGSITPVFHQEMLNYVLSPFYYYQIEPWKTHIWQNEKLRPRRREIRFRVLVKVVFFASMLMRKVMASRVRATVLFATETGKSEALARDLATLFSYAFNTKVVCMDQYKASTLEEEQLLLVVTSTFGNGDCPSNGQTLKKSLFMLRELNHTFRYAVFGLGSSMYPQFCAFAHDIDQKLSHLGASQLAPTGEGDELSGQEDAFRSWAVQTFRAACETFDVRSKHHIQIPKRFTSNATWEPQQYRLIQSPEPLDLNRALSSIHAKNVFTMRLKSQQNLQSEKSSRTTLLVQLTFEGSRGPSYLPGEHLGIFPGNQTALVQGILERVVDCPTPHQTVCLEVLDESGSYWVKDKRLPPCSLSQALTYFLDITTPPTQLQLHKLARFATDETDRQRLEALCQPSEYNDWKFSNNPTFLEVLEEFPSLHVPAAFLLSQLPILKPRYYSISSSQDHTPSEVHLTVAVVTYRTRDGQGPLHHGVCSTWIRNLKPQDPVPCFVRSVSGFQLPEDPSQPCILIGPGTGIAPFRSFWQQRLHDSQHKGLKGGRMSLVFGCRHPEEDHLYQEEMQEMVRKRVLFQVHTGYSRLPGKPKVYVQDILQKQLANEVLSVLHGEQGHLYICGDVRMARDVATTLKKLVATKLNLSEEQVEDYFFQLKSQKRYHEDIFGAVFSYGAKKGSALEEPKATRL

RAW264.7 [5] = assay: Cytotoxicity against mouse RAW264.7 cells assessed as decrease in cell viability at 20 uM; format: cell-based; conditions: raw264.7, 20 µM
BV-2 [6] = assay: Downregulation of iNOS expression in LPS-treated mouse BV2 cells at 10 uM incubated for 30 mins prior to LPS challenge measured after 6 hrs by Western blot analysis; format: functional, cell-based
RAW264.7 [7] = assay: Anti-neuroinflammatory activity in mouse RAW264.7 cells assessed as inhibition of LPS-induced nitric oxide production; format: functional, cell-based
[8] = Reduction of SNP-induced nitrite accumulation at 1 to 10 uM after 180 mins by Griess assay
[9] = target: T1, Nitric oxide synthase, inducible (Mus musculus); assay: Inhibition of iNOS in LPS-treated mouse BV2 cells assessed as decrease in nitrite level at 1 to 5 uM after 12 hrs by Griess assay; format: cell-based; conditions: BV-2
BV-2 [10] = assay: Downregulation of iNOS expression in LPS-treated mouse BV2 cells at 1 to 10 uM incubated for 30 mins prior to LPS challenge measured after 6 hrs by Western blot analysis; format: functional, cell-based

Structure (SMILES) | IC50 (BV-2 [2]) [µM] | viability at 20 µM [1] [%] | also measured
CNC(=N)NCCC[C@H](N)C(=O)O [TILARGININE] | – | 103 | –
O=C(/C=C/c1ccc(O)c(O)c1)O[C@@H]1C[C@](OC(=O)/C=C/c2ccc(O)c(O)c2)(C(=O)O)C[C@@H](O)[C@H]1O [1,5-O-TRANS-DICAFFEOYLQUINIC ACID] | 22.6 | 93.7 | –
CO[C@@H](CC(=O)O[C@@H]1C[C@](OC(=O)/C=C/c2ccc(O)c(O)c2)(C(=O)O)C[C@@H](O)[C@H]1O)c1ccc(O)c(O)c1 | 4.66 | 93.2 | Activity [3]: Active; inhibition [4]: Active; Activity (RAW264.7 [5]): Non-toxic; Activity (BV-2 [6]): Active; IC50 (RAW264.7 [7]): 175 µM
COC(=O)[C@@]1(O)C[C@@H](O)[C@H](OC(=O)/C=C/c2ccc(O)c(O)c2)[C@H](OC(=O)/C=C/c2ccc(O)c(O)c2)C1 [3,4-O-TRANS-CAFFEOYLQUINIC ACID METHYL ESTER] | 20.2 | 96.8 | –
O=C(/C=C/c1ccc(O)cc1)O[C@@H]1C[C@](OC(=O)/C=C/c2ccc(O)c(O)c2)(C(=O)O)C[C@@H](O)[C@H]1O | 23.5 | 94.3 | –
CO[C@@H](CC(=O)O[C@@]1(C(=O)O)C[C@@H](O)[C@@H](O)[C@H](OC(=O)/C=C/c2ccc(O)c(O)c2)C1)c1ccc(O)c(O)c1 | 12.5 | 90.9 | –
O=C(/C=C\c1ccc(O)cc1)O[C@@H]1C[C@](OC(=O)/C=C\c2ccc(O)cc2)(C(=O)O)C[C@@H](O)[C@H]1O | 52.8 | 96 | –
O=C(/C=C\c1ccc(O)cc1)O[C@@H]1C[C@](OC(=O)/C=C/c2ccc(O)cc2)(C(=O)O)C[C@@H](O)[C@H]1O | 59.8 | 98.1 | –
COC(=O)[C@]1(O)C[C@@H](OC(=O)/C=C/c2ccc(O)c(O)c2)[C@@H](O)[C@H](OC(=O)/C=C/c2ccc(O)c(O)c2)C1 | 9.04 | 91.1 | Activity [8]: Active; inhibition [9]: Active; Activity (BV-2 [10]): inactive; Activity (RAW264.7 [5]): Non-toxic; IC50 (RAW264.7 [7]): 42.9 µM

Continued, in another order:

IC50 (BV-2 [2]) [µM] | Structure (SMILES) | viability at 20 µM [1] [%] | also measured
86.4 | COC(=O)[C@]1(O)C[C@@H](O)[C@@H](O)[C@H](OC(=O)/C=C\c2ccc(O)cc2)C1 | 109 | –
12.1 | COC(=O)[C@]1(O)C[C@@H](O)[C@@H](O)[C@H](OC(=O)/C=C/c2ccc(O)c(O)c2)C1 [CHLOROGENIC ACID METHYL ESTER] | 95.3 | –
82 | COC(=O)[C@]1(O)C[C@@H](O)[C@@H](O)[C@H](OC(=O)/C=C/c2ccc(O)cc2)C1 | 109 | –
17 | COC(=O)[C@]1(O)C[C@@H](O)[C@@H](O)[C@H](OC(=O)/C=C\c2ccc(O)c(O)c2)C1 | 90.6 | –
16.6 | COC(=O)[C@]1(O)C[C@@H](O)[C@@H](OC(=O)/C=C/c2ccc(O)c(O)c2)[C@H](O)C1 | 92.6 | –
45 | COC(=O)[C@]1(O)C[C@@H](O)[C@@H](OC(=O)/C=C/c2ccc(O)cc2)[C@H](O)C1 | 108 | –
24.6 | COC(=O)[C@]1(O)C[C@@H](O)[C@@H](OC(=O)/C=C/c2ccc(O)c(O)c2)[C@H](OC(=O)/C=C/c2ccc(O)c(O)c2)C1 | 92.2 | –
